Assay results as given in ChEMBL document CHEMBL1127137, “3-phosphono-1-carba-1-dethiacephalosporins as antibacterial agents” (1993).
Values after ≈ are worked out from the molar mass of the structure shown.

Legend:
Format in all cases: functional
[1] = tested on: Staphylococcus aureus; assay: Antimicrobial activity against gram positive Staphylococcus aureus (V41) was determined
[2] = tested on: Escherichia coli; assay: Antimicrobial activity against gram negative Escherichia coli (EC14) was determined
[3] = tested on: Streptococcus pneumoniae; assay: Antimicrobial activity against gram positive Streptococcus pneumoniae (PARK) was determined
[4] = tested on: Staphylococcus epidermidis; assay: Antimicrobial activity against gram positive Staphylococcus epidermidis (222) was determined
[5] = tested on: Staphylococcus aureus; assay: Antimicrobial activity against gram positive Staphylococcus aureus (X1.1) was determined

| Compound | MIC [1] [mg/L] | MIC [2] [mg/L] | MIC [3] [mg/L] | MIC [4] [mg/L] | MIC [5] [mg/L] |
| --- | --- | --- | --- | --- | --- |
| O=C(COc1ccccc1)N[C@@H]1C(=O)N2C(C(=O)O)=C(OP(=O)(O)O)CC[C@H]12 | > 128 | > 128 | > 128 | > 128 | 64 (≈ 155 µM) |
| CCOP(=O)(OCC)OC1=C(C(=O)[O-])N2C(=O)[C@@H](NC(=O)COc3ccccc3)[C@H]2CC1.[Na+] | 2 | 64 | 0.25 | 1 | 0.25 |
| COP(=O)(OC)OC1=C(C(=O)[O-])N2C(=O)[C@@H](NC(=O)COc3ccccc3)[C@H]2CC1.[Na+] | 2 | 64 | 0.5 | 1 | 0.5 |
| CCCCOP(=O)(OCCCC)OC1=C(C(=O)[O-])N2C(=O)[C@@H](NC(=O)COc3ccccc3)[C@H]2CC1.[Na+] | 64 | > 128 | 0.03 | 1 | 0.5 |
| N[C@@H](C(=O)N[C@@H]1C(=O)N2C(C(=O)O)=C(Cl)CC[C@H]12)c1ccccc1 [LORACARBEF ANHYDROUS] | 4 (≈ 11.4 µM) | 0.05 (≈ 0.143 µM) | 1 (≈ 2.86 µM) | 2 (≈ 5.72 µM) | 2 (≈ 5.72 µM) |
| CC1(C)S[C@@H]2[C@H](NC(=O)COc3ccccc3)C(=O)N2[C@H]1C(=O)O [PENICILLIN V] | 16 (≈ 45.7 µM) | 128 (≈ 365 µM) | 0.06 (≈ 0.171 µM) | 0.125 (≈ 0.357 µM) | 0.06 (≈ 0.171 µM) |
